Several values for one entry are separate records, joined by “and”; a condition that tells them apart may be missing. Identical values can stand only once. Toxic doses and inconclusive results are not listed.
System: BDF1 mice, P388 leukemia ip, median survival T/C
Assay: NCI In Vivo Anticancer Drug Screen. Data for tumor model P388 Leukemia (intraperitoneal) in B6D2F1 (BDF1) mice
Conditions: endpoint: median survival time, higher = longer survival
Method in brief: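 Compound-treated tumour-bearing mice were compared with vehicle-treated controls. Survival was recorded, and the value is the treated-group measurement divided by the control-group measurement (T/C).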

COC(=O)[C@@]12OC[C@]34[C@H]([C@@H](O)[C@@H]1O)[C@@]1(C)CC(=O)C(O)=C(C)[C@@H]1C[C@H]3OC(=O)[C@H](OC(=O)/C=C(\C)C(C)C)[C@@H]24
T/C (dose: 0.03 mg/kg/injection, schedule: Q01DX009 (ip), vehicle: saline + alcohol): 151 % of control | T/C (dose: 0.03 mg/kg/injection, schedule: Q01DX009 (ip), vehicle: saline): 155 % of control | T/C (dose: 0.05 mg/kg/injection, schedule: Q01DX005 (iv), vehicle: saline + alcohol): 100 % of control | T/C (dose: 0.05 mg/kg/injection, schedule: Q01DX009 (ip), vehicle: saline + alcohol): 150 % of control | T/C (dose: 0.06 mg/kg/injection, schedule: Q01DX009 (ip), vehicle: other): 153 % of control | T/C (dose: 0.06 mg/kg/injection, schedule: Q01DX009 (ip), vehicle: saline): 170 % of control | T/C (dose: 0.06 mg/kg/injection, schedule: Q01DX009 (sc), vehicle: saline + alcohol): 100 % of control | T/C (dose: 0.06 mg/kg/injection, schedule: Q03HX024 (ip), vehicle: other): 155 % of control | T/C (dose: 0.06 mg/kg/injection, schedule: Q03HX024 (ip), vehicle: saline + alcohol): 152 % of control and 153 % of control | T/C (dose: 0.1 mg/kg/injection, schedule: Q01DX005 (iv), vehicle: saline + alcohol): 100 % of control | T/C (dose: 0.1 mg/kg/injection, schedule: Q01DX009 (ip), vehicle: saline + alcohol): 158 % of control | T/C (dose: 0.12 mg/kg/injection, schedule: Q01DX009 (ip), vehicle: other): 177 % of control | T/C (dose: 0.12 mg/kg/injection, schedule: Q01DX009 (ip), vehicle: saline + alcohol): 158 % of control | T/C (dose: 0.12 mg/kg/injection, schedule: Q01DX009 (ip), vehicle: saline with Tween-80): 151 % of control | T/C (dose: 0.12 mg/kg/injection, schedule: Q01DX009 (ip), vehicle: saline): 180 % of control | T/C (dose: 0.12 mg/kg/injection, schedule: Q03HX024 (ip), vehicle: other): 166 % of control | T/C (dose: 0.12 mg/kg/injection, schedule: Q03HX024 (ip), vehicle: saline + alcohol): 157 % of control | T/C (dose: 0.12 mg/kg/injection, schedule: Q03HX024 (ip), vehicle: saline with Tween-80): 150 % of control | T/C (dose: 0.13 mg/kg/injection, schedule: Q01DX009 (ip), vehicle: saline + alcohol): 158 % of control and 164 % of control and 173 % of control | T/C (dose: 0.13 mg/kg/injection, schedule: Q01DX009 (ip), vehicle: saline with Tween-80): 161 % of control | T/C (dose: 0.13 mg/kg/injection, schedule: Q01DX009 (sc), vehicle: saline + alcohol): 108 % of control | T/C (dose: 0.13 mg/kg/injection, schedule: Q03HX016 (ip), vehicle: saline + alcohol): 152 % of control | T/C (dose: 0.13 mg/kg/injection, schedule: Q03HX024 (ip), vehicle: saline + alcohol): 159 % of control | T/C (dose: 0.2 mg/kg/injection, schedule: Q01DX005 (iv), vehicle: saline + alcohol): 100 % of control | T/C (dose: 0.2 mg/kg/injection, schedule: Q01DX009 (ip), vehicle: saline + alcohol): 173 % of control | T/C (dose: 0.25 mg/kg/injection, schedule: Q01DX009 (ip), vehicle: other): 171 % of control | T/C (dose: 0.25 mg/kg/injection, schedule: Q01DX009 (ip), vehicle: saline with Tween-80): 183 % of control | T/C (dose: 0.25 mg/kg/injection, schedule: Q01DX009 (sc), vehicle: saline + alcohol): 108 % of control | T/C (dose: 0.25 mg/kg/injection, schedule: Q03HX016 (ip), vehicle: saline + alcohol): 165 % of control | T/C (dose: 0.25 mg/kg/injection, schedule: Q03HX024 (ip), vehicle: saline with Tween-80): 169 % of control | T/C (dose: 0.25 mg/kg/injection, schedule: Q04DX003 (ip), vehicle: saline + alcohol): 122 % of control | T/C (dose: 0.25 mg/kg/injection, schedule: Q04DX003 (ip), vehicle: saline with Tween-80): 120 % of control | T/C (dose: 0.4 mg/kg/injection, schedule: Q01DX005 (iv), vehicle: saline + alcohol): 107 % of control | T/C (dose: 0.4 mg/kg/injection, schedule: Q01DX009 (ip), vehicle: saline + alcohol): 185 % of control | T/C (dose: 0.44 mg/kg/injection, schedule: Q01DX009 (ip), vehicle: saline with Tween-80): 186 % of control | T/C (dose: 0.5 mg/kg/injection, schedule: Q01DX009 (ip), vehicle: other): 177 % of control | T/C (dose: 0.5 mg/kg/injection, schedule: Q01DX009 (ip), vehicle: saline with Tween-80): 175 % of control | T/C (dose: 0.5 mg/kg/injection, schedule: Q01DX009 (ip), vehicle: saline): 150 % of control | T/C (dose: 0.5 mg/kg/injection, schedule: Q01DX009 (oral), vehicle: saline + alcohol): 101 % of control and 110 % of control | T/C (dose: 0.5 mg/kg/injection, schedule: Q01DX009 (sc), vehicle: saline + alcohol): 116 % of control | T/C (dose: 0.5 mg/kg/injection, schedule: Q04DX003 (ip), vehicle: saline + alcohol): 120 % of control | T/C (dose: 0.5 mg/kg/injection, schedule: Q04DX003 (ip), vehicle: saline with Tween-80): 117 % of control | T/C (dose: 0.5 mg/kg/injection, schedule: Q08DX002 (ip), vehicle: saline + alcohol): 109 % of control | T/C (dose: 0.5 mg/kg/injection, schedule: Q08DX002 (ip), vehicle: saline with Tween-80): 116 % of control | T/C (dose: 0.65 mg/kg/injection, schedule: Q04DX003 (ip), vehicle: saline + alcohol): 123 % of control | T/C (dose: 0.67 mg/kg/injection, schedule: Q01DX009 (ip), vehicle: saline with Tween-80): 169 % of control | T/C (dose: 0.8 mg/kg/injection, schedule: Q01DX005 (ip), vehicle: saline + alcohol): 164 % of control | T/C (dose: 0.8 mg/kg/injection, schedule: Q01DX005 (iv), vehicle: saline + alcohol): 106 % of control and 119 % of control | T/C (dose: 1.0 mg/kg/injection, schedule: Q01DX001 (ip), vehicle: saline + alcohol): 107 % of control | T/C (dose: 1.0 mg/kg/injection, schedule: Q01DX001 (ip), vehicle: saline with Tween-80): 112 % of control | T/C (dose: 1.0 mg/kg/injection, schedule: Q01DX001 (oral), vehicle: saline + alcohol): 100 % of control and 101 % of control | T/C (dose: 1.0 mg/kg/injection, schedule: Q01DX001 (sc), vehicle: saline + alcohol): 114 % of control | T/C (dose: 1.0 mg/kg/injection, schedule: Q01DX009 (ip), vehicle: saline): 166 % of control | T/C (dose: 1.0 mg/kg/injection, schedule: Q01DX009 (oral), vehicle: saline + alcohol): 105 % of control and 107 % of control | T/C (dose: 1.0 mg/kg/injection, schedule: Q04DX003 (ip), vehicle: saline + alcohol): 123 % of control | T/C (dose: 1.0 mg/kg/injection, schedule: Q04DX003 (ip), vehicle: saline with Tween-80): 123 % of control | T/C (dose: 1.0 mg/kg/injection, schedule: Q08DX002 (ip), vehicle: saline + alcohol): 115 % of control | T/C (dose: 1.0 mg/kg/injection, schedule: Q08DX002 (ip), vehicle: saline with Tween-80): 99 % of control | T/C (dose: 1.08 mg/kg/injection, schedule: Q04DX003 (ip), vehicle: saline + alcohol): 123 % of control | T/C (dose: 1.5 mg/kg/injection, schedule: Q01DX009 (ip), vehicle: saline with Tween-80): 186 % of control | T/C (dose: 1.6 mg/kg/injection, schedule: Q01DX005 (ip), vehicle: saline + alcohol): 182 % of control | T/C (dose: 1.8 mg/kg/injection, schedule: Q04DX003 (ip), vehicle: saline + alcohol): 110 % of control and 123 % of control | T/C (dose: 2.0 mg/kg/injection, schedule: Q01DX001 (ip), vehicle: saline + alcohol): 106 % of control | T/C (dose: 2.0 mg/kg/injection, schedule: Q01DX001 (ip), vehicle: saline with Tween-80): 112 % of control | T/C (dose: 2.0 mg/kg/injection, schedule: Q01DX001 (oral), vehicle: saline + alcohol): 99 % of control and 101 % of control | T/C (dose: 2.0 mg/kg/injection, schedule: Q01DX001 (sc), vehicle: saline + alcohol): 113 % of control | T/C (dose: 2.0 mg/kg/injection, schedule: Q01DX009 (ip), vehicle: saline with Tween-80): 97 % of control | T/C (dose: 2.0 mg/kg/injection, schedule: Q01DX009 (oral), vehicle: saline + alcohol): 96 % of control and 111 % of control | T/C (dose: 2.0 mg/kg/injection, schedule: Q01DX009 (sc), vehicle: saline + alcohol): 99 % of control | T/C (dose: 2.0 mg/kg/injection, schedule: Q08DX002 (ip), vehicle: saline + alcohol): 99 % of control | T/C (dose: 2.0 mg/kg/injection, schedule: Q08DX002 (ip), vehicle: saline with Tween-80): 91 % of control | T/C (dose: 3.2 mg/kg/injection, schedule: Q01DX005 (iv), vehicle: saline + alcohol): 110 % of control | T/C (dose: 4.0 mg/kg/injection, schedule: Q01DX001 (oral), vehicle: saline + alcohol): 101 % of control and 105 % of control | T/C (dose: 4.0 mg/kg/injection, schedule: Q01DX009 (oral), vehicle: saline + alcohol): 97 % of control and 115 % of control | T/C (dose: 8.0 mg/kg/injection, schedule: Q01DX001 (oral), vehicle: saline + alcohol): 98 % of control and 99 % of control | T/C (dose: 45.0 micrograms/kg/injection, schedule: Q01DX009 (ip), vehicle: saline + alcohol): 155 % of control | T/C (dose: 90.0 micrograms/kg/injection, schedule: Q01DX009 (ip), vehicle: saline + alcohol): 180 % of control | T/C (dose: 177.0 micrograms/kg/injection, schedule: Q01DX009 (ip), vehicle: saline + alcohol): 190 % of control | T/C (dose: 389.0 micrograms/kg/injection, schedule: Q01DX004 (ip), vehicle: saline + alcohol): 159 % of control | T/C (dose: 400.0 micrograms/kg/injection, schedule: Q01DX009 (ip), vehicle: saline + alcohol): 185 % of control | T/C (dose: 432.0 micrograms/kg/injection, schedule: Q01DX009 (ip), vehicle: saline + alcohol): 180 % of control and 181 % of control | T/C (dose: 720.0 micrograms/kg/injection, schedule: Q01DX009 (ip), vehicle: saline + alcohol): 182 % of control | T/C (dose: 1200.0 micrograms/kg/injection, schedule: Q01DX009 (ip), vehicle: saline + alcohol): 179 % of control | T/C (dose: 2000.0 micrograms/kg/injection, schedule: Q01DX009 (ip), vehicle: saline + alcohol): 189 % of control

From PubChem BioAssay AID328 (DTP/NCI, 2004)
